Series [1] can be described thus: Stability of active ingredients in the formulation, two weeks at 54° C. The note with it: for % wt after 2 week at 54° C. / Initial % wt: formulation of Table 5 (emulsion).
Series [2] is described as follows: Stability of fenoxaprop-p-ethyl in the formulation at ambient temperature (~22° C.). Format: physicochemical.
Procedure: The formulation described in table 1 was tested for stability of all three active ingredients for two weeks at 54° C.
Where [3] appears, read: formulation of table 1 (micro emulsion, pH 6.7), two weeks at 54° C.
Where [4] appears, read: formulation of table 3 (emulsifiable concentrate), two weeks at 54° C.

The record followed here is patent US20160050919A1, “ACETYL-COA CARBOXYLASE INHIBITOR HERBICIDE AND AUXIN HERBICIDE FORMULATIONS” (Nufarm Americas, Inc., priority 2014, published 2016).

For `COc1c(Cl)ccc(Cl)c1C(=O)O` [Dicamba], in series [1], the “% wt after 2 week at 54° C.” value stood at 0.45 % wt and the Initial % wt is 0.64 % wt. The “stability of active ingredient” value in series [1] (setting [3]) is listed as “remained unchanged”. Also, the “stability of active ingredient” value in series [1] (setting [4]) was “remained unchanged”.
In the case of `CCCCCCC(C)OC(=O)COc1nc(F)c(Cl)c(N)c1Cl` (centres unmarked) [fluroxypyr MHE, Fluroxypyr MHE], the “stability of active ingredient” value in series [1] (setting [3]) and in series [1] (setting [4]) was “remained unchanged” each time.
For the compound `CCOC(=O)[C@@H](C)Oc1ccc(Oc2nc3ccc(Cl)cc3o2)cc1` [fenoxaprop-p-ethyl, Fenoxaprop-p-ethyl], the “fenoxaprop-p-ethyl content, 2-week” value in series [2] (formulation of table 1, 2 weeks) is 2.61 wt %. In series [2] (formulation of table 1, 4 weeks), the “fenoxaprop-p-ethyl content, 4-week” value came out at 2.24 wt %. For the same compound, the “fenoxaprop-p-ethyl content, 6-week” value in series [2] (formulation of table 1, 6 weeks) is 2.15 wt %. Also, the “fenoxaprop-p-ethyl content, 8-week” value in series [2] (formulation of table 1, 8 weeks) was determined as 1.91 wt %. The “fenoxaprop-p-ethyl content, 12-week” value in series [2] (formulation of table 1, 12 weeks) worked out at 1.28 wt %. Also, the “fenoxaprop-p-ethyl content, 14-week” value in series [2] (formulation of table 1, 14 weeks) was found to be 0.87 wt %. In addition, the “fenoxaprop-p-ethyl content, Initial” value in series [2] (formulation of table 1, initial) is listed as 2.82 wt %. In addition, in series [1], the “% wt after 2 week at 54° C.” value worked out at 0.60 % wt and the Initial % wt was found to be 0.60 % wt. The compound further displayed a recovered after storage in series [1] (setting [3]) of 1%.
In the case of `O=C(O)COc1nc(Cl)c(Cl)cc1Cl` [Triclopyr, Triclopyr ACID], in series [1], the “% wt after 2 week at 54° C.” value is 1.75 % wt and the Initial % wt is reported as 1.78 % wt.
For `Cc1cc(Cl)ccc1O[C@@H](C)C(=O)O` [MCPP-p], in series [1], the “% wt after 2 week at 54° C.” value was found to be 1.39 % wt and the Initial % wt is on record as 1.53 % wt.
